# How the values were obtained:
# [1] = test system: Vesicular stomatitis virus (VSV); conditions: cited from earlier work
# [2] = test system: Herpes simplex virus-1 (HSV-1); conditions: 20° C., cell culture harvest broth; cited from earlier work
# [3] = test system: X-MuLV; assay: X-MuLV virus inactivation using caprylic acid and detergents in test tubes; format: cell-based, xenotropic murine leukemia virus; conditions: for time for complete virus inactivation: clarified cell culture
# [4] = test system: respiratory syncytial virus (RSV); conditions: 0.5%, 4° C., within four hours; cited from earlier work
# [5] = test system: Friend murine leukemia virus (FrMuLV); conditions: 0.5%, 4° C., within four hours; cited from earlier work
molecule,measurement,setting,value
"CCCCCCCC(=O)O [Caprylate, caprylic acid]",inactivation,"[1]; 5° C., after 120 minutes",only partial inactivation
same,time to complete inactivation,"[1]; 20° C., cell culture harvest broth",less than 60 minutes
same,time to complete inactivation,[2],less than 60 minutes
same,X-MuLV virus inactivation (LRV),"[3]; MAb05 cell culture, 20 mM pH 5.5, time 0 min",0
same,X-MuLV virus inactivation (LRV),"[3]; MAb05 cell culture, 20 mM pH 5.5, time 1 min",2.63
same,X-MuLV virus inactivation (LRV),"[3]; MAb05 cell culture, 20 mM pH 5.5, time 5 min",≧3.8
same,X-MuLV virus inactivation (LRV),"[3]; MAb05 cell culture, 20 mM pH 5.5, time 10 min",≧3.8
same,X-MuLV virus inactivation (LRV),"[3]; MAb05 cell culture, 20 mM pH 5.5, time 20 min",≧3.8
same,X-MuLV virus inactivation (LRV),"[3]; MAb05 cell culture, 200 mM pH 7, time 0 min",0
same,X-MuLV virus inactivation (LRV),"[3]; MAb05 cell culture, 200 mM pH 7, time 1 min",2.91
same,X-MuLV virus inactivation (LRV),"[3]; MAb05 cell culture, 200 mM pH 7, time 5 min",≧3.8
same,X-MuLV virus inactivation (LRV),"[3]; MAb05 cell culture, 200 mM pH 7, time 10 min",≧3.8
same,X-MuLV virus inactivation (LRV),"[3]; MAb05 cell culture, 200 mM pH 7, time 20 min",≧3.8
same,X-MuLV virus inactivation (LRV),"[3]; Pure MAb07, 20 mM pH 5.5, time 0 min",0
same,X-MuLV virus inactivation (LRV),"[3]; Pure MAb07, 20 mM pH 5.5, time 1 min",≧3.1
same,X-MuLV virus inactivation (LRV),"[3]; Pure MAb07, 20 mM pH 5.5, time 5 min",≧3.1
same,X-MuLV virus inactivation (LRV),"[3]; Pure MAb07, 20 mM pH 5.5, time 10 min",≧3.1
same,X-MuLV virus inactivation (LRV),"[3]; Pure MAb07, 20 mM pH 5.5, time 20 min",≧3.1
same,X-MuLV virus inactivation (LRV),"[3]; Pure MAb07, 200 mM pH 7, time 0 min",0
same,X-MuLV virus inactivation (LRV),"[3]; Pure MAb07, 200 mM pH 7, time 1 min",≧3.1
same,X-MuLV virus inactivation (LRV),"[3]; Pure MAb07, 200 mM pH 7, time 5 min",≧3.1
same,X-MuLV virus inactivation (LRV),"[3]; Pure MAb07, 200 mM pH 7, time 10 min",≧3.1
same,X-MuLV virus inactivation (LRV),"[3]; Pure MAb07, 200 mM pH 7, time 20 min",≧3.1
same,time for complete virus inactivation,[3]; both pH and salinities,requires a minimum of five minutes
Triton X,Log 10 reduction values,[4],> 5.4
same,Log 10 reduction values,[5],> 3.8
same,X-MuLV virus inactivation (LRV),"[3]; MAb05 cell culture, 0.5%, time 0 min",0
same,X-MuLV virus inactivation (LRV),"[3]; MAb05 cell culture, 0.5%, time 1 min",≧3.1
same,X-MuLV virus inactivation (LRV),"[3]; MAb05 cell culture, 0.5%, time 5 min",≧3.1
same,X-MuLV virus inactivation (LRV),"[3]; MAb05 cell culture, 0.5%, time 10 min",≧3.1
same,X-MuLV virus inactivation (LRV),"[3]; MAb05 cell culture, 0.5%, time 20 min",≧3.1
same,X-MuLV virus inactivation (LRV),"[3]; Pure MAb07, 0.5%, time 0 min",0
same,X-MuLV virus inactivation (LRV),"[3]; Pure MAb07, 0.5%, time 1 min",≧3.1
same,X-MuLV virus inactivation (LRV),"[3]; Pure MAb07, 0.5%, time 5 min",≧3.1
same,X-MuLV virus inactivation (LRV),"[3]; Pure MAb07, 0.5%, time 10 min",≧3.1
same,X-MuLV virus inactivation (LRV),"[3]; Pure MAb07, 0.5%, time 20 min",≧3.1
same,time for complete virus inactivation,[3]; 0.5%,complete virus inactivation after one minute

# — patent US9809799B2, “Methods for inactivating viruses during a protein purification process” (priority 2012, dated 2017)
